Where two headings read alike, the source gives them in different places.

Data set [1] deals with Fasciola hepatica TIM (FhTIM) (Fasciola hepatica, UniProt S4UI50). Kind of data set: Inhibition of recombinant FhTIM, coupled enzyme assay. Format: biochemical. The settings on record: read-out: IC50. The essentials:
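E. coli-expressed FhTIM preincubated with compound 1 h at 37 °C in 100 mM triethanolamine, 10 mM EDTA, pH 7.4, 10% DMSO. Aliquot diluted into coupled assay (1 mM glyceraldehyde-3-phosphate, 0.2 mM NADH, α-glycerol phosphate dehydrogenase, pH 7.4) with NADH decrease at 340 nm, 38 °C. Triplicate, two independent experiments.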

The subject of data set [2] is newly excysted juvenile (NEJ) F. hepatica. Kind of data set: In vitro NEJ treatment. The data set is classed as cell-based, Fasciola hepatica. The settings on record: NEJ, incubation time 72 h. Here is the method: F. hepatica metacercariae were acquired from DILAVE, MGAP, Uruguay. NEJ were obtained by in vitro excystement as previously described with minor modifications. Briefly, metacercariae were incubated with 1% sodium hypochlorite for 5 min at room temperature to remove the outer cyst wall and then washed exhaustively with PBS 200 U/mL Penicillin G sulfate, […] streptomycin sulfate, 500 ng/mL amphotericin B, 10 mM HEPES, counted and divided into groups of around 20 parasites that were transferred to 12 wells tissue culture plates. Parasites were maintained at 37 °C, 5% CO2 in modified Basch’s medium. At day 1, compounds were added at the indicated concentrations and 0.5% DMSO was added to control groups; each condition was tested in duplicate. NEJ behavior was monitored under a light microscope (Olympus BX41), every day each well was recorded for a minute in order to assess parasite motility and registered using the following score: 3- normally active; 2- reduced activity (sporadic movement); 1- immotile (dead)[48].

Another data set concerns S. mansoni somules. Kind of data set: S. mansoni somules phenotypic screen in vitro. The data set is classed as cell-based, Schistosoma mansoni. Particulars: for SOMULES SEVERITY SCORE: Table 2S, 10 uM. From the text:
(§1) The NMRI isolate of S. mansoni was maintained by passage through Biomphalaria glabrata snails and 3–5 week-old, female Golden Syrian hamsters (Charles River, San Diego, CA) as intermediate and definite hosts, respectively. A dose of 600 infective larvae (cercariae) was used to infect hamsters. The acquisition, preparation and in vitro maintenance of S. mansoni post-infective larvae (schistosomula or somules) and adults have been already described[5],[50],[51]. Vertebrate animal maintenance and handling at the University of California San Diego Animal Care Facility were in accordance with protocols approved by the university’s Institutional Animal Care and Use Committee (IACUC).
Phenotypic screens with somules were performed as described[5],[50],[51]. Initially, 100 μL Basch medium, 100 U/ml penicillin, […] streptomycin, 4% heat-inactivated FBS (Corning Mediatech) and 1 μl compound in DMSO were added to clear, 96-well round-bottomed plates (Costar cat.# 3367). Then, 100 μL of the same medium containing 40–50 somules was added to mix the compound with somules (final concentration of DMSO was 0.5%). Assay plates were placed into plastic boxes humidified with wet tissue and then incubated at 37 °C in a 5% CO2 environment. Somules phenotypes were recorded every 24 h up to 72 h using an inverted microscope (Zeiss Axiovert 40 C).
(§2) Schistosome phenotypic responses were recorded employing a series of ‘descriptors,’ such as rounding, degeneration, overactivity, loss of translucency and changes in motility, as described previously[5],[50],[51],[53]. To allow for comparisons of compound activity, each descriptor was awarded a value of 1 and these were added up to a maximum ‘severity score’ of 4. Evidence of degeneracy or death was awarded the maximum score of 4. Scores were averaged across duplicate wells for each compound (see details in the supporting information).

In a further data set the test system is S. mansoni adults. Kind of data set: S. mansoni adults phenotypic screen ex vivo. The data set is classed as cell-based, Schistosoma mansoni. Particulars: Table 2S, 5 uM.
Description: as §1
Phenotypic screens with 42-day-old, adult parasites were performed in 24-well plates (Costar cat.# 3526) containing the above medium and approximately five adult males and two females per well. Compound was added in a volume of up to 1 μL DMSO at a concentration of 5 µM (0.05% DMSO final). Assay plates were incubated at 37 °C in a 5% CO2 environment. Parasite phenotypes were recorded at 4, 8 and 24 h using a Zeiss Axiovert 40 C.
as §2

Data set [3] deals with murine macrophages and bovine sperm. Kind of data set: Non-specific toxicity against mammalian cells. Format: cell-based. The settings on record: for toxicity to mammalian cells in words: herein; for Toxicity mammalian cells: selectivity index parasite vs. mammalian cells, fixed doses 25 and 100 µM. As to the method: As a proof of concept, we tested the best FhTIM inactivators against F. hepatica and S. mansoni parasites. Also, we use compound 191 as a non-inhibitor which has a closely related structure to that of compound 187. Some compounds were able to kill 100% of the newly excysted juvenile (NEJ) F. hepatica within 4 to 48 h (Table 2 and Fig. 2). […] In parallel, these compounds were assayed to characterize their non-specific toxicity against murine macrophages and bovine sperm. Both models are recommended by FDA as an in vitro prediction of toxicology.
J774.1 murine macrophage cells (ATCC, USA) were grown in DMEM culture milieu containing 4 mM glutamine and supplemented with 10% FCS[20]. The cells were seeded in a 96-well plate (5×10^4 cells in 200 µL culture medium) and incubated at 37 °C in a 5% CO2 atmosphere for 48 h, to allow cell adhesion prior to drug testing. Afterward, cells were exposed for 48 h to the compounds (25–400 µM) or the vehicle for control (0.4% DMSO), and additional controls (cells in medium) were used in each test. Cell viability was then assessed by measuring the mitochondria-dependent reduction of MTT (3-(4,5-dimethylthiazol-2-yl)-2,5-diphenyltetrazolium bromide) to formazan. For this purpose, MTT in sterile PBS (0.2% glucose), pH 7.4, was added to the macrophages to achieve a final concentration of 0.1 mg/mL, and the cells were incubated at 37 °C for 3 h. After removing the medium, formazan crystals were dissolved in 180 µL of DMSO and 20 µL of MTT buffer (0.1 M glycine, 0.1 M NaCl, 0.5 mM EDTA, pH 10.5), and the absorbance at 560 nm was measured. The IC50 was defined as the drug concentration at which 50% of the cells were viable, relative to the control (no drug added), and was determined by analysis using OriginLab8.5® sigmoidal regression (% of viable cells vs. the logarithm of the compound concentration). Tests were performed in triplicate.
Semen samples were obtained from a healthy fertile Hereford bull and kept frozen in 0.5 mL straws (extended in Andromed, Minitube, Germany[47]) under liquid nitrogen until use. The semen used belonged to a single freezing batch that was obtained during a regular collection schedule with an artificial vagina. Samples from three straws were thawed and a sperm pool was prepared in PBS at a concentration of 40 million spermatozoa per mL, then 50 μL of this sperm suspension was carefully mixed with 50 μL of compounds diluted to 100, 50, 25, 12.5 and 6.25 μM or with 1% DMSO in control experiments. Each condition was assayed by duplicate in 96-well plates and controls were assayed by triplicate. Plates were incubated at 37 °C for 1 h with moderate shaking. The motility analysis was carried out using a CASA (Computer Assisted Semen Analyzer) system Androvision (Minitube, Tiefenbach, Germany) with an Olympus BX 41 microscope (Olympus, Japan) equipped with a warm-stage at 37 °C. Each sample (10 μL) was placed onto a Makler Counting Chamber (depth 10 μm, Sefi-Medical Instruments, Israel) and the following parameters were evaluated: percentage of total motile spermatozoa (motility >5 μm/s) and velocity curved line (VCL, >24 μm/s). At least 400 spermatozoa were analyzed from each sample from at least four microscope fields.

The test system of data set [4] is murine macrophages and human peripheral blood mononuclear cells. Further details: method as in PMID 22536349. Particulars: at 100 µM; cited from earlier work.
Where [5] appears, read: recombinant FhTIM, 1 h incubation with compound at 37 °C.

Chain of Fasciola hepatica TIM (FhTIM) (S4UI50 entry or part of it): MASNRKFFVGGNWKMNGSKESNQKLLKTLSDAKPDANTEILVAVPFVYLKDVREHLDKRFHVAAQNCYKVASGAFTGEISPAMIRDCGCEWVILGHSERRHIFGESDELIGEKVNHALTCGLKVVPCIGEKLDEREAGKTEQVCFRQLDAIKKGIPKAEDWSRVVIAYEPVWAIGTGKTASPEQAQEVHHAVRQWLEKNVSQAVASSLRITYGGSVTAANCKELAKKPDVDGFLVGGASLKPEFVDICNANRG

The IC50 is the concentration needed to halve the response being measured. Regarding `C=CCn1c(-c2ccc(Cl)cc2)csc1=NN=CC=Cc1ccc([N+](=O)[O-])s1` [Compound 144], the IC50 in data set [1] (setting [5]) was found to be 60 ± 2 µM; in data set [2], 25 ± 5 µM. Further, the “S. mansoni somules severity score” value in the data set on S. mansoni somules (Table 2, 72 h, score 0 to maximum 4) is on record as 4 (72 h). Also, the “SOMULES SEVERITY SCORE” value with S. mansoni somules (24 h) stood at 1; with S. mansoni somules (48 h), 2; in the data set with S. mansoni somules (3d), 4. In addition, the “ADULTS SEVERITY SCORE” value in the data set on S. mansoni adults (4 h), with S. mansoni adults (8 h) and with S. mansoni adults (24 h) was 0 throughout. Also, the “toxicity to mammalian cells in words” value in data set [3] is “non-toxic”. In data set [3], the Toxicity mammalian cells result is “NT (when the IC50 vs. the parasite was at least 10 times less than the IC50 vs. the mammalian cells, we considered these compounds as non-toxic (NT))”. Also, the toxicity in words result in data set [4] is given as “non-toxic”.

For `C=CCn1c(-c2ccc(Cl)cc2)csc1=NN=CC=Cc1cccs1` [Compound 1134], the IC50 in data set [1] (Table 1S, screening of 340 compounds in FhTIM, table head prints no unit, µM per b8/b9) was 50 to 100 µM; in data set [1] (setting [5]) it was 45 ± 4 µM; in data set [2] it was 50 ± 6 µM. Also, the “toxicity to mammalian cells in words” value in data set [3] is listed as “non-toxic”. Also, in data set [3], the Toxicity mammalian cells result is on record as “NT (when the IC50 vs. the parasite was at least 10 times less than the IC50 vs. the mammalian cells, we considered these compounds as non-toxic (NT))”. Besides, the toxicity in words entry in data set [4] was “non-toxic”.

The record behind these values is paper PMC7018972, “Novel and selective inactivators of Triosephosphate isomerase with anti-trematode activity” (Scientific Reports, 2020).
